Test results from ChEMBL document CHEMBL1212938, “Inhibition of mycobacterial replication by pyrimidines possessing various C-5 functionalities and related 2'-deoxynucleoside analogues using in vitro and in vivo models” (J Med Chem, 2010).
Calls of active or inactive are those of the source.

Experiments:
Assay type in all cases: functional, organism-based
Staphylococcus aureus = experiment: Antibacterial activity against Staphylococcus aureus at 100 ug/ml after 16 to 20 hrs by broth microdilution method
[1] = tested on: Staphylococcus epidermidis; experiment: Antibacterial activity against Staphylococcus epidermidis at 100 ug/ml after 16 to 20 hrs by broth microdilution method
Enterococcus faecalis = experiment: Antibacterial activity against Enterococcus faecalis at 100 ug/ml after 16 to 20 hrs by broth microdilution method
Bacillus subtilis = experiment: Antibacterial activity against Bacillus subtilis at 100 ug/ml after 16 to 20 hrs by broth microdilution method
Streptococcus pneumoniae = experiment: Antibacterial activity against Streptococcus pneumoniae at 100 ug/ml after 16 to 20 hrs by broth microdilution method
Streptococcus pyogenes = experiment: Antibacterial activity against Streptococcus pyogenes at 100 ug/ml after 16 to 20 hrs by broth microdilution method
Listeria monocytogenes = experiment: Antibacterial activity against Listeria monocytogenes at 100 ug/ml after 16 to 20 hrs by broth microdilution method
Salmonella typhimurium = experiment: Antibacterial activity against Salmonella Typhimurium at 100 ug/ml after 16 to 20 hrs by broth microdilution method; settings: Salmonella enterica subsp. enterica serovar Typhimurium
Escherichia coli = experiment: Antibacterial activity against Escherichia coli at 100 ug/ml after 16 to 20 hrs by broth microdilution method
Proteus vulgaris = experiment: Antibacterial activity against Proteus vulgaris at 100 ug/ml after 16 to 20 hrs by broth microdilution method
Pseudomonas aeruginosa = experiment: Antibacterial activity against Pseudomonas aeruginosa at 100 ug/ml after 16 to 20 hrs by broth microdilution method

Measured: Activity

CCCCCCCCc1cc2c[nH]c(=O)nc2o1
inactive: all assays above

CCCCCc1cc2c[nH]c(=O)nc2o1
inactive: all assays above

CCCCCCCCCCCCC#Cc1c[nH]c(=O)[nH]c1=O
inactive: all assays above

COC(CCl)c1c[nH]c(=O)[nH]c1=O (stereo not drawn)
not listed: Bacillus subtilis | Listeria monocytogenes
inactive: all other assays above

CCCC#Cc1c[nH]c(=O)[nH]c1=O
inactive: all assays above

CCCCCCCCCCCC#Cc1c[nH]c(=O)[nH]c1=O
inactive: all assays above

COC(CBr)c1c[nH]c(=O)[nH]c1=O (stereo not drawn)
not listed: Bacillus subtilis | Listeria monocytogenes
inactive: all other assays above

O=c1[nH]cc(C(CI)OCCBr)c(=O)[nH]1 (stereo not drawn)
not listed: Bacillus subtilis | Listeria monocytogenes
inactive: all other assays above

CCOC(CI)c1c[nH]c(=O)[nH]c1=O (stereo not drawn)
not listed: Bacillus subtilis | Listeria monocytogenes
inactive: all other assays above

COC(CI)c1c[nH]c(=O)[nH]c1=O (stereo not drawn)
not listed: Bacillus subtilis | Listeria monocytogenes
inactive: all other assays above

CCCCCCCCCCc1cc2c[nH]c(=O)nc2o1
inactive: all assays above

O=c1[nH]cc(C(O)CI)c(=O)[nH]1 (stereo not drawn)
not listed: Bacillus subtilis | Listeria monocytogenes
inactive: all other assays above

O=C(O)C(I)C(O)c1c[nH]c(=O)[nH]c1=O (stereo not drawn)
not listed: Bacillus subtilis | Listeria monocytogenes
inactive: all other assays above

CCCCCCCCC#Cc1c[nH]c(=O)[nH]c1=O
inactive: all assays above

O=c1[nH]cc(C(CI)OCCF)c(=O)[nH]1 (stereo not drawn)
not listed: Bacillus subtilis | Listeria monocytogenes
inactive: all other assays above

CCCCCCCCCCC#Cc1c[nH]c(=O)[nH]c1=O
inactive: all assays above

O=c1[nH]cc(C(CI)OCC(F)(F)F)c(=O)[nH]1 (stereo not drawn)
not listed: Bacillus subtilis | Listeria monocytogenes
inactive: all other assays above

O=C(O)/C=C/c1c[nH]c(=O)[nH]c1=O
not listed: Bacillus subtilis | Listeria monocytogenes
inactive: all other assays above
